Laboratory results reported in patent US8846710B2, “Method of preferentially inducing the biosynthesis of interferon” (3M Innovative Properties Company, priority 2005, dated 2014).

Tests used:
interferon (α) (IFN-α) = test: Cytokine induction in human cells: IFN-α secreted by PBMC into culture media (ELISA); type: cell-based; conditions: Table 11; human PBMC; median where tested in more than one experiment
How it was run: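 Human donor PBMC, 2×10^6 cells/mL final in RPMI complete, treated 18–24 h at 37 °C, 5% CO2 with 3-fold dilutions (usually 30-0.014 μM), DMSO ≤1%. Supernatant IFN-α by multi-subtype sandwich ELISA, background-subtracted and reference-adjusted; minimum effective concentration = lowest concentration exceeding usually 20 pg/mL.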

[1] = test system: tumor necrosis factor (α) (TNF-α); test: Cytokine induction in human cells: TNF-α secreted by PBMC into culture media (ORIGEN M-Series immunoassay); type: cell-based; parameters: key to Maximal Response (pg/mL) TNF / Maximal Response TNF: If any negative values result from background subtraction, the reading is reported as “*”, and is noted as not reliably detectable; conditions: Table 11, human PBMC; for Minimum Effective Concentration TNF: median where tested in more than one experiment; for Maximal Response TNF: median, * = TNF below experimental background of 40 pg/mL
How it was run: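 Human donor PBMC (final 2×10^6 cells/mL) were incubated 18 to 24 hours at 37° C with compound, usually 30-0.014 μM in 3-fold steps, ≤1% DMSO. Supernatant TNF-α was measured by ORIGEN immunoassay, background-subtracted and reference-adjusted; minimum effective concentration was the lowest concentration exceeding a fixed cytokine threshold.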

| SMILES | Maximal Response IFN (interferon (α) (IFN-α)) | Minimum Effective Concentration IFN (interferon (α) (IFN-α)) | Minimum Effective Concentration TNF [1] | Maximal Response TNF [1] |
| --- | --- | --- | --- | --- |
| CCCc1nc2c(N)nc3ccccc3c2n1CCCCCS(C)(=O)=O [Analog 75] | 828 pg/mL | 0.12 µM | 1.11 µM | 848 pg/mL |
| COCCc1nc2c(N)nc3ccccc3c2n1CCCCCS(C)(=O)=O [Analog 76] | 2695 pg/mL | 0.014 µM | 1.11 µM | 6169 pg/mL |
| Cc1nc2c(N)nc3ccccc3c2n1CCOCCN(C)S(C)(=O)=O [Analog 77] | 1001 pg/mL | 0.12 µM | 1.11 µM | 3571 pg/mL |
| CCc1nc2c(N)nc3ccccc3c2n1CCOCCN(C)S(C)(=O)=O [Analog 78] | 1803 pg/mL | 0.12 µM | 1.11 µM | 2525 pg/mL |
| CCCc1nc2c(N)nc3ccccc3c2n1CCOCCN(C)S(C)(=O)=O [Analog 79] | 1055 pg/mL | 0.37 µM | 3.33 µM | 1312 pg/mL |
| COCCc1nc2c(N)nc3ccccc3c2n1CCOCCN(C)S(C)(=O)=O [Analog 80] | 1630 pg/mL | 0.014 µM | 0.37 µM | 2191 pg/mL |
| Cc1nc2c(N)nc3ccccc3c2n1CCCNC(=O)NC(C)C [Analog 81] | 1134 pg/mL | 3.33 µM | 10 µM | 490 pg/mL |
| CCCc1nc2c(N)nc3ccccc3c2n1CCCNC(=O)NC(C)C [Analog 82] | 6571 pg/mL | 0.12 µM | 1.11 µM | 3740 pg/mL |
| COCCc1nc2c(N)nc3ccccc3c2n1CCCNC(=O)NC(C)C [Analog 83] | 1289 pg/mL | 0.12 µM | 1.11 µM | 1259 pg/mL |
| Cc1nc2c(N)nc3ccccc3c2n1CCCN [Analog 84] | 421 pg/mL | 3.33 µM | >30 µM | * |
| CCOCc1nc2c(N)nc3ccccc3c2n1CCCN [Analog 85] | 1325 pg/mL | 0.12 µM | 30 µM | 411 pg/mL |
| COCCc1nc2c(N)nc3ccccc3c2n1CCCN [Analog 86] | 3433 pg/mL | 0.04 µM | 1.11 µM | 1674 pg/mL |
| Cc1nc2c(N)nc3ccccc3c2n1CCCNC(=O)N1CCOCC1 [Analog 87] | 4843 pg/mL | 0.37 µM | 30 µM | 463 pg/mL |
| CCOCc1nc2c(N)nc3ccccc3c2n1CCCNC(=O)N1CCOCC1 [Analog 88] | 6670 pg/mL | 0.12 µM | 1.11 µM | 1379 pg/mL |
| COCCc1nc2c(N)nc3ccccc3c2n1CCCNC(=O)N1CCOCC1 [Analog 89] | 5915 pg/mL | 0.014 µM | 0.014 µM | 6169 pg/mL |
| CCc1nc2c(N)nc3ccccc3c2n1CC(C)(C)CNC(=O)Nc1ccccc1 [Analog 90] | 922 pg/mL | 0.014 µM | 0.12 µM | 2098 pg/mL |

| SMILES | Maximal Response IFN (interferon (α) (IFN-α)) | Minimum Effective Concentration IFN (interferon (α) (IFN-α)) | Minimum Effective Concentration TNF [1] | Maximal Response TNF [1] |
| --- | --- | --- | --- | --- |
| CCOCc1nc2c(N)nc3ccccc3c2n1CC(C)(C)CNC(=O)Nc1ccccc1 [Analog 91] | 1133 pg/mL | 0.014 µM | 0.04 µM | 3618 pg/mL |
| COCCc1nc2c(N)nc3ccccc3c2n1CC(C)(C)CNC(=O)Nc1ccccc1 [Analog 92] | 570 pg/mL | 0.014 µM | 0.04 µM | 6449 pg/mL |
| CCOCc1nc2c(N)nc3ccccc3c2n1CC(C)(C)NC(=O)C1CCCCC1 [Analog 93] | 1052 pg/mL | 0.37 µM | 0.37 µM | 12173 pg/mL |
| COCc1nc2c(N)nc3ccccc3c2n1CC(C)(C)CNC(=O)c1ccccc1 [Analog 94] | 2518 pg/mL | 1.11 µM | 3.33 µM | 9721 pg/mL |
| COCOCc1nc2c(N)nc3ccccc3c2n1CC(C)(C)CNC(=O)c1ccccc1 [Analog 95] | 832 pg/mL | 0.04 µM | 0.37 µM | 1820 pg/mL |
| COCCc1nc2c(N)nc3ccccc3c2n1CC(C)(C)CNC(=O)c1ccccc1 [Analog 96] | 2133 pg/mL | 0.014 µM | 0.014 µM | 1812 pg/mL |
| CCCCNC(=O)NCCCn1c(COCC)nc2c(N)nc3ccccc3c21 [Analog 97] | 827 pg/mL | 0.37 µM | 3.33 µM | 963 pg/mL |
| CCCCNC(=O)NCCCn1c(CCOC)nc2c(N)nc3ccccc3c21 [Analog 98] | 5915 pg/mL | 0.014 µM | 0.04 µM | 6169 pg/mL |
| CCc1nc2c(N)nc3ccccc3c2n1CC(C)(C)CN [Analog 99] | 405 pg/mL | 0.04 µM | 0.37 µM | 13846 pg/mL |
| COCCc1nc2c(N)nc3ccccc3c2n1CC(C)(C)CN [Analog 100] | 571 pg/mL | 0.014 µM | 0.04 µM | 17626 pg/mL |
| Cc1nc2c(N)nc3ccccc3c2n1CCCNC(=O)c1ccccc1 [Analog 101] | 571 pg/mL | 1.11 µM | 3.33 µM | 156 pg/mL |
| COCCc1nc2c(N)nc3ccccc3c2n1CCCNC(=O)c1ccccc1 [Analog 102] | 1504 pg/mL | 0.014 µM | 1.11 µM | 3080 pg/mL |
| CCNC(=O)NCCn1c(CC)nc2c(N)nc3ccccc3c21 [Analog 103] | 1031 pg/mL | 3.33 µM | 10 µM | 3250 pg/mL |
| CCNC(=O)NCCn1c(CCOC)nc2c(N)nc3ccccc3c21 [Analog 104] | 2587 pg/mL | 0.014 µM | 0.12 µM | 7719 pg/mL |
| CCc1nc2c(N)nc3ccccc3c2n1CCNC(=O)CC(C)C [Analog 105] | 851 pg/mL | 3.33 µM | 30 µM | 587 pg/mL |
